Laboratory results published in paper PMC11882969 (Nature Communications, 2025).
Where “and” joins values, the source holds several entries; their conditions need not be identical. Equal entries are not always repeated. Where two headings read alike, the source gives them in different places.

How the values were obtained:
hCB1 = hCB1 (Homo sapiens, UniProt P21554); assay: bioSensAll ebBRET signaling profiling, hCB1; format: cell-based; set-up: host or cells: HEK293SL cells, transient PEI transfection; conditions: for Gi1 hCB1 response: Gi1 biosensor; for Gi1 hCB1 / GoB hCB1: single replicate values, FigS6a; for EC50: read-out: EC50 [95% CI]; for Emax: normalized to CP-55,940
hCB1, sequence (P21554 whole entry): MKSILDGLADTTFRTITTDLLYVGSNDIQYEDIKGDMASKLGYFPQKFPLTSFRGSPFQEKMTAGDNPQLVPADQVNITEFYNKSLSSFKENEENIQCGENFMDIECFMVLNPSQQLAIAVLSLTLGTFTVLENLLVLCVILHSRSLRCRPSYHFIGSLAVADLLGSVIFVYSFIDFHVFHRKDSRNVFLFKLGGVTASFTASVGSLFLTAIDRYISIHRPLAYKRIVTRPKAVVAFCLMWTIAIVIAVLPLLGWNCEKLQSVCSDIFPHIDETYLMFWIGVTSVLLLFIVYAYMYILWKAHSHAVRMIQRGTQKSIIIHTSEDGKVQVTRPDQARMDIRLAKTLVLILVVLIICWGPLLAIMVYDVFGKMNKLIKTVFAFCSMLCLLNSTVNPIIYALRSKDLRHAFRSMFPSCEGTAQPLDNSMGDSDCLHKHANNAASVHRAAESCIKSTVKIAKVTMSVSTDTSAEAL

CB1 (rCB1) = CB1 (rCB1) (Rattus norvegicus, UniProt P20272); assay: Radioligand competition binding, [3H]-CP-55,940, rat brain membranes
CB1 (rCB1), sequence (P20272 whole entry): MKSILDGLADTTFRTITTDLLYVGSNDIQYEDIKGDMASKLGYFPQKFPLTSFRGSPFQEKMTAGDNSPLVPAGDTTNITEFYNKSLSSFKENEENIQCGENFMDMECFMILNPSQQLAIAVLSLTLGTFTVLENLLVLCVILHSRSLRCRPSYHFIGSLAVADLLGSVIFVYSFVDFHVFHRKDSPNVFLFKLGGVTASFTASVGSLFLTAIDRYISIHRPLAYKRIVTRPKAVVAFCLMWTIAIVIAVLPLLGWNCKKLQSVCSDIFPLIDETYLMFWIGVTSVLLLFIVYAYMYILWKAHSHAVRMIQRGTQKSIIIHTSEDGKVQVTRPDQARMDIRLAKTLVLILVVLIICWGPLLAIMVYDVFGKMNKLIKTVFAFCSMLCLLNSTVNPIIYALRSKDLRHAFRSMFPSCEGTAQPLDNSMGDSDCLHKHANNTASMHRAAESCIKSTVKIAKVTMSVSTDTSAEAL

Cc1cc(C(=O)NC(c2ccccc2)c2ccco2)nn1-c1cccc(C(F)(F)F)c1 (stereo not drawn) [‘1081]
Gi1 hCB1 response (hCB1; Log [Compound] (M) -4.22186): 74.944 | Gi1 hCB1 response (hCB1; Log [Compound] (M) -4.63927): 67.9833 | Gi1 hCB1 response (hCB1; Log [Compound] (M) -5.05788): 54.8454 | Gi1 hCB1 response (hCB1; Log [Compound] (M) -5.47381): 47.9296 | Gi1 hCB1 response (hCB1; Log [Compound] (M) -5.89285): 64.2009 | Gi1 hCB1 response (hCB1; Log [Compound] (M) -6.31878): 42.1551 | Gi1 hCB1 response (hCB1; Log [Compound] (M) -6.72585): 23.6233 | Gi1 hCB1 response (hCB1; Log [Compound] (M) -7.14267): 32.464 | Gi1 hCB1 response (hCB1; Log [Compound] (M) -7.55284): 4.129 | Gi1 hCB1 response (hCB1; Log [Compound] (M) -8): -0.3248 | Gi1 hCB1 response (hCB1; Log [Compound] (M) -8.22186): 3.077 | Gi1 hCB1 response (hCB1; Log [Compound] (M) -8.39794): 0.4809 | Gi1 hCB1 response (hCB1; Log [Compound] (M) -8.68787): 1.913 | Gi1 hCB1 response (hCB1; Log [Compound] (M) -9.15521): -3.123 | Gi1 hCB1 response (hCB1; Log [Compound] (M) -9.61989): -0.5486 | Gi1 hCB1 response (hCB1; Log [Compound] (M) -10.5529): 3.637 | Gi1 hCB1 response (hCB1; Log [Compound] (M) -11.0177): -17.939 | Gi1 hCB1 response (hCB1; Log [Compound] (M) -11.4949): 0.01089 | Gi1 hCB1 response (hCB1; Log [Compound] (M) -11.9208): -4.7116 | Gi1 hCB1 response (hCB1; Log [Compound] (M) -12.3979): -3.011 | Gi1 hCB1 response (hCB1; Log [Compound] (M) -13, individual replicate values): 10.3511 and -8.673 | Gi1 hCB1 (hCB1; Log [Compound] (M) -4.22186): 52.0891 | GoB hCB1 (hCB1; Log [Compound] (M) -4.22186): 46.0629 | Gi1 hCB1 (hCB1; Log [Compound] (M) -4.63927): 50.1467 | GoB hCB1 (hCB1; Log [Compound] (M) -4.63927): 47.4116 | Gi1 hCB1 (hCB1; Log [Compound] (M) -5.05788): 48.6204 | GoB hCB1 (hCB1; Log [Compound] (M) -5.05788): 38.1682 | Gi1 hCB1 (hCB1; Log [Compound] (M) -5.47381): 43.0088 | GoB hCB1 (hCB1; Log [Compound] (M) -5.47381): 38.8336 | Gi1 hCB1 (hCB1; Log [Compound] (M) -5.89285): 42.6234 | GoB hCB1 (hCB1; Log [Compound] (M) -5.89285): 33.6364 | Gi1 hCB1 (hCB1; Log [Compound] (M) -6.31878): 36.4105 | GoB hCB1 (hCB1; Log [Compound] (M) -6.31878): 34.6075 | Gi1 hCB1 (hCB1; Log [Compound] (M) -6.72585): 32.0322 | GoB hCB1 (hCB1; Log [Compound] (M) -6.72585): 26.2812 | Gi1 hCB1 (hCB1; Log [Compound] (M) -7.14267): 17.1706 | GoB hCB1 (hCB1; Log [Compound] (M) -7.14267): 21.1739 | Gi1 hCB1 (hCB1; Log [Compound] (M) -7.55284): 12.4531 | GoB hCB1 (hCB1; Log [Compound] (M) -7.55284): 14.1424 | Gi1 hCB1 (hCB1; Log [Compound] (M) -8): 6.533 | GoB hCB1 (hCB1; Log [Compound] (M) -8): 4.935 | Gi1 hCB1 (hCB1; Log [Compound] (M) -8.22186): 6.209 | GoB hCB1 (hCB1; Log [Compound] (M) -8.22186): 1.626 | Gi1 hCB1 (hCB1; Log [Compound] (M) -8.39794): 4.544 | GoB hCB1 (hCB1; Log [Compound] (M) -8.39794): 0.2593 | Gi1 hCB1 (hCB1; Log [Compound] (M) -8.68787): 3.434 | GoB hCB1 (hCB1; Log [Compound] (M) -8.68787): -1.683 | Gi1 hCB1 (hCB1; Log [Compound] (M) -9.15521): 3.357 | GoB hCB1 (hCB1; Log [Compound] (M) -9.15521): -3.445 | Gi1 hCB1 (hCB1; Log [Compound] (M) -9.61989): 1.492 | GoB hCB1 (hCB1; Log [Compound] (M) -9.61989): -0.6039 | Gi1 hCB1 (hCB1; Log [Compound] (M) -10.0969): 1.199 | GoB hCB1 (hCB1; Log [Compound] (M) -10.0969): -2.51 | Gi1 hCB1 (hCB1; Log [Compound] (M) -10.5529): 3.496 | GoB hCB1 (hCB1; Log [Compound] (M) -10.5529): -5.459 | Gi1 hCB1 (hCB1; Log [Compound] (M) -11.0177): 1.214 | GoB hCB1 (hCB1; Log [Compound] (M) -11.0177): -3.661 | Gi1 hCB1 (hCB1; Log [Compound] (M) -11.4949): 1.523 | GoB hCB1 (hCB1; Log [Compound] (M) -11.4949): 0.9786 | Gi1 hCB1 (hCB1; Log [Compound] (M) -11.9208): 2.833 | GoB hCB1 (hCB1; Log [Compound] (M) -11.9208): 3.047 | Gi1 hCB1 (hCB1; Log [Compound] (M) -12.3979): 0.3511 | GoB hCB1 (hCB1; Log [Compound] (M) -12.3979): -1.071 | Gi1 hCB1 (hCB1; Log [Compound] (M) -12.8861): 2.432 | GoB hCB1 (hCB1; Log [Compound] (M) -12.8861): -2.402 | Gi1 hCB1 (hCB1; Log [Compound] (M) -13): 2.448 and 3.003 | GoB hCB1 (hCB1; Log [Compound] (M) -13): -0.01046 and 0.7448 | pEC50 [95% CI] (hCB1; hCB1 Gi1): 6.8 [6.7 – 6.9] | pEC50 [95% CI] (hCB1; hCB1 GoB): 7.0 [6.8 – 7.3] | pEC50 [95% CI] (hCB1; hCB1 Gz): 6.7 [6.2 – 7.1] | EC50 (hCB1; hCB1 Gi1): 150 nM | EC50 (hCB1; hCB1 GoB): 91.7 nM | EC50 (hCB1; hCB1 Gz): 225 nM | Emax (hCB1; read-out: Emax [95% CI], hCB1 Gi1): 49% | Emax (hCB1; read-out: Emax [95% CI], hCB1 GoB): 45% | Emax (hCB1; read-out: Emax [95% CI], hCB1 Gz): 72% | pKi [95% CI] (CB1 (rCB1); rCB1): 6.9 [6.8 – 7.1] | Ki (CB1 (rCB1); read-out: Ki [95% CI], rCB1, [3H]-CP-55,940): 116 nM
